What was measured:
Type in all cases: physicochemical
[1] = Physical stability on storage in serum crimp vials; conditions: up to 4 weeks; for physical stability: 5° C. sealed, 25° C./60% RH open, 40° C. sealed, 40° C./75% RH open, 60° C. sealed, 80° C. sealed
Procedure: (§1) The crystalline L-proline co-crystal of the compound of formula (I-X) was tested for physical stability by storing about 10 mg of the co-crystal in 10 mL serum crimp vials, under following conditions: (a) 5° C., sealed; (b) 25° C./60% RH, open; (c) 40° C., sealed; (d) 40° C./75% RH, open; (e) 60° C., sealed; and (f) 80° C., sealed; with stability data collected at 1 day, 1 week, 2 weeks and 4 weeks.
as §1, with “citric acid” for “L-proline”, “was similarly” for “was”, “in” for “in 10”

[2] = Chemical stability/degradation of stored samples by HPLC; conditions: 1 week
Procedure: (§2) Samples of the crystalline L-proline co-crystal of the compound of formula (I-X) being tested for physical stability, sampled at 1 day, 1 week, 2 weeks and 4 weeks, were further tested for chemical stability/degradation. Crystalline L-proline co-crystal of the compound of formula (I-X) (˜10 mg) was diluted with a 50:50 water:acetonitrile solution (10 mL), and then further diluted 10 fold for HPLC measurements.
as §2, with “citric acid” for “L-proline”

[3] = Dynamic vapor sorption/desorption (DVS); conditions: for hygroscopicity: 0% RH to 90% RH, 2 full cycles; for form conversion by pXRD after the DVS run: isolated at 0% RH
Procedure: DVS: Moisture sorption was characterized on a DVS-1 Instrument (Surface Measurement Systems, Allentown, Pa.). In each case, the sample was subject to a drying curve from ambient to 0% relative humidity (RH), followed by two cycles of sorption (from 0% RH to 90% RH) and desorption (from 90% RH to 0% RH) in 10% RH steps at 25° C. At each step the sample was allowed to equilibrate at a specific % RH and thus, stabilize in terms of weight gained or lost prior to the instrument moving to the next step within the method.
The crystalline L-proline co-crystal of the compound of formula (I-X) was further characterized using Dynamic Vapor Sorption (DVS), measuring from 0% RH to 90% RH (2 full cycles) at 25° C.
The crystalline citric acid co-crystal of the compound of formula (I-X) was further characterized using Dynamic Vapor Sorption (DVS), measuring from 0% RH to 90% RH (2 full cycles) at 25° C.

[4] = all six storage conditions, 1 day, 2 weeks and 4 weeks
[5] = 25° C./60% RH open and 60° C. sealed, 2 week and 4 week samples
[6] = 40° C./75% RH open and 80° C. sealed, 2 week and 4 week samples

physical stability [1] | visible color changes ([1]; all six storage conditions) | chemical stability (HPLC) [2, 4] | degradation peaks (HPLC) [2, 4] | hygroscopicity ([3]; 25° C.) | mass gain ([3]; between 40% RH and 90% RH, 25° C., lost on desorption with some hysteresis) [%] | form conversion by pXRD after the DVS run [3] | weight gain ([3]; until % RH reached 40%, 25° C.) | degradation on a peak basis ([1]; stored at 25° C./60% RH, 40° C./75% RH, 60° C. or 80° C.) [%] | degradation peaks (HPLC) [2, 5] | peak purity (HPLC) [2, 5] [%] | peak purity (HPLC) [2, 6] [%] | chemical stability (HPLC) ([2]; stored at 5° C. sealed and 40° C. sealed, 1 day, 2 weeks and 4 weeks) | increase in mass ([3]; 0%-80% RH, 25° C., lost again on desorption) [%] | SMILES | degradation peaks (HPLC) [2, 6]
physically stable | no visible color changes | chemically stable | No degradation peaks were observed | hygroscopic | 12 | no irreversible form conversion | no weight gain was observed |  |  |  |  |  |  | Cc1ccc([C@@H]2O[C@H](CO)[C@@H](O)[C@H](O)[C@H]2O)cc1Cc1ccc(-c2ccc(F)cc2)s1 [crystalline L-proline co-crystal of the compound of formula ] [(2S,3R,4R,5S,6R)-2-(3-((5-(4-fluorophenyl)thiophen-2-yl)methyl)-4-methylphenyl)-6-(hydroxymethyl)tetrahydro-2H-pyran-3,4,5-triol] | 
physically stable |  |  |  | non-hygroscopic |  | no form conversion |  | < 0.3 | A small degradation peak was observed | > 99 | > 99 | chemically stable | 0.5 | Cc1ccc([C@@H]2O[C@H](CO)[C@@H](O)[C@H](O)[C@H]2O)cc1Cc1ccc(-c2ccc(F)cc2)s1 [crystalline citric acid co-crystal of the compound of formul] [(2S,3R,4R,5S,6R)-2-(3-((5-(4-fluorophenyl)thiophen-2-yl)methyl)-4-methylphenyl)-6-(hydroxymethyl)tetrahydro-2H-pyran-3,4,5-triol] | A few small degradation peaks were also observed
